Data from PubChem BioAssay (NCI).
Values joined by “and” are separate entries in the source; they are usually repeats but may differ in a detail not shown here. Equal values may be shown once.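 Test compounds were applied to cells in 96-well plates for 48 hours at 5 doses. GI50 is the concentration that inhibits growth by half. At the TGI there is no net growth.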

Legend:
Test in all cases: NCI-60 cell line screen, 48 h
UACC-62 melanoma = test system: UACC-62 melanoma
K-562 leukemia = test system: K-562 leukemia
HL-60(TB) leukemia = test system: HL-60(TB) leukemia
SNB-75 CNS = test system: SNB-75 CNS
HOP-92 NSCLC = test system: HOP-92 NSCLC
MOLT-4 leukemia = test system: MOLT-4 leukemia
RPMI-8226 leukemia = test system: RPMI-8226 leukemia
LXFL 529 NSCLC = test system: LXFL 529 NSCLC
CCRF-CEM leukemia = test system: CCRF-CEM leukemia
LOX IMVI melanoma = test system: LOX IMVI melanoma
SR leukemia = test system: SR leukemia
MALME-3M melanoma = test system: MALME-3M melanoma
UO-31 renal = test system: UO-31 renal
HCT-116 colon = test system: HCT-116 colon
SNB-19 CNS = test system: SNB-19 CNS
COLO 205 colon = test system: COLO 205 colon
OVCAR-3 ovarian = test system: OVCAR-3 ovarian
KM20L2 colon = test system: KM20L2 colon
HOP-18 NSCLC = test system: HOP-18 NSCLC
SF-295 CNS = test system: SF-295 CNS
HOP-62 NSCLC = test system: HOP-62 NSCLC
HT29 colon = test system: HT29 colon
OVCAR-8 ovarian = test system: OVCAR-8 ovarian
KM12 colon = test system: KM12 colon
HCC-2998 colon = test system: HCC-2998 colon
OVCAR-4 ovarian = test system: OVCAR-4 ovarian
M14 melanoma = test system: M14 melanoma
SK-MEL-2 melanoma = test system: SK-MEL-2 melanoma
SN12C renal = test system: SN12C renal
UACC-257 melanoma = test system: UACC-257 melanoma
NCI-H226 lung = test system: NCI-H226 lung
HCT-15 colon = test system: HCT-15 colon
NCI-H460 lung = test system: NCI-H460 lung
SW-620 colon = test system: SW-620 colon
DMS 273 small cell lung = test system: DMS 273 small cell lung
CAKI-1 renal = test system: CAKI-1 renal
OVCAR-5 ovarian = test system: OVCAR-5 ovarian
M19-MEL melanoma = test system: M19-MEL melanoma
DU-145 prostate = test system: DU-145 prostate
T-47D breast = test system: T-47D breast
SK-MEL-5 melanoma = test system: SK-MEL-5 melanoma
SF-539 CNS = test system: SF-539 CNS
BT-549 breast = test system: BT-549 breast
MDA-MB-231 breast = test system: MDA-MB-231 breast
A549 NSCLC = test system: A549 NSCLC
PC-3 prostate = test system: PC-3 prostate
MCF7 breast = test system: MCF7 breast
U251 CNS = test system: U251 CNS
HS 578T breast = test system: HS 578T breast
RXF 393 renal = test system: RXF 393 renal
MDA-N = test system: MDA-N
SK-OV-3 ovarian = test system: SK-OV-3 ovarian
IGROV1 ovarian = test system: IGROV1 ovarian
A498 renal = test system: A498 renal
786-0 renal = test system: 786-0 renal
SF-268 CNS = test system: SF-268 CNS
SK-MEL-28 melanoma = test system: SK-MEL-28 melanoma
TK-10 renal = test system: TK-10 renal
NCI-H522 lung = test system: NCI-H522 lung
NCI-H23 lung = test system: NCI-H23 lung
EKVX NSCLC = test system: EKVX NSCLC
MDA-MB-435 = test system: MDA-MB-435
NCI/ADR-RES ovarian = test system: NCI/ADR-RES ovarian
ACHN renal = test system: ACHN renal

N#Cc1c(-c2ccccc2)cc(-c2ccccc2)n(C2OC(CO)C(O)C(O)C2O)c1=O (centres undefined)
TGI (UACC-62 melanoma): > 100 µM
TGI (K-562 leukemia): > 100 µM
TGI (HL-60(TB) leukemia): > 100 µM
GI50 (SNB-75 CNS): 34.4 µM and 14.5 µM
TGI (SNB-75 CNS): > 100 µM and 80.9 µM
GI50 (HOP-92 NSCLC): 88.4 µM and 31.9 µM
TGI (HOP-92 NSCLC): > 100 µM
TGI (MOLT-4 leukemia): > 100 µM
TGI (RPMI-8226 leukemia): > 100 µM
TGI (LXFL 529 NSCLC): > 100 µM
TGI (CCRF-CEM leukemia): > 100 µM
TGI (LOX IMVI melanoma): > 100 µM
TGI (SR leukemia): > 100 µM

O=C(Nc1cccc(C(F)(F)F)c1)c1cc(-c2ccccc2)nc(=S)[nH]1
TGI (MALME-3M melanoma): > 100 µM
TGI (UO-31 renal): > 100 µM
TGI (HCT-116 colon): > 100 µM
TGI (SNB-19 CNS): > 100 µM
TGI (COLO 205 colon): > 100 µM
TGI (OVCAR-3 ovarian): > 100 µM
TGI (KM20L2 colon): > 100 µM
TGI (HL-60(TB) leukemia): > 100 µM
TGI (HOP-18 NSCLC): > 100 µM
TGI (SF-295 CNS): > 100 µM
TGI (HOP-62 NSCLC): > 100 µM
TGI (HT29 colon): > 100 µM
TGI (HOP-92 NSCLC): > 100 µM
TGI (OVCAR-8 ovarian): > 100 µM
TGI (KM12 colon): > 100 µM
TGI (LXFL 529 NSCLC): > 100 µM
TGI (HCC-2998 colon): > 100 µM
TGI (OVCAR-4 ovarian): > 100 µM
TGI (M14 melanoma): > 100 µM
TGI (SK-MEL-2 melanoma): > 100 µM
TGI (SN12C renal): > 100 µM
TGI (UACC-257 melanoma): > 100 µM
TGI (NCI-H226 lung): > 100 µM
TGI (LOX IMVI melanoma): > 100 µM
TGI (HCT-15 colon): > 100 µM
TGI (SR leukemia): > 100 µM
TGI (NCI-H460 lung): > 100 µM
TGI (SW-620 colon): > 100 µM
TGI (DMS 273 small cell lung): > 100 µM
TGI (CAKI-1 renal): > 100 µM
TGI (OVCAR-5 ovarian): > 100 µM
TGI (M19-MEL melanoma): > 100 µM

Cc1ccc(Nc2nc(NS(=O)(=O)c3cc(C)c(Cl)cc3S)n[nH]2)cc1
TGI (DU-145 prostate): > 100 µM
TGI (T-47D breast): > 100 µM
TGI (SK-MEL-5 melanoma): > 100 µM
TGI (UACC-62 melanoma): > 100 µM
TGI (MALME-3M melanoma): > 100 µM
TGI (UO-31 renal): > 100 µM
TGI (SF-539 CNS): > 100 µM
TGI (HCT-116 colon): > 100 µM
TGI (SNB-19 CNS): > 100 µM
TGI (BT-549 breast): > 100 µM
TGI (K-562 leukemia): > 100 µM
TGI (COLO 205 colon): > 100 µM
TGI (OVCAR-3 ovarian): > 100 µM
TGI (MDA-MB-231 breast): > 100 µM
TGI (A549 NSCLC): > 100 µM
TGI (PC-3 prostate): > 100 µM
TGI (HL-60(TB) leukemia): > 100 µM
TGI (SF-295 CNS): > 100 µM
TGI (MCF7 breast): > 100 µM
TGI (HOP-62 NSCLC): > 100 µM
TGI (SNB-75 CNS): > 100 µM
TGI (HT29 colon): > 100 µM
TGI (HOP-92 NSCLC): > 100 µM
TGI (MOLT-4 leukemia): > 100 µM
TGI (U251 CNS): > 100 µM
TGI (HS 578T breast): > 100 µM
TGI (OVCAR-8 ovarian): > 100 µM
TGI (KM12 colon): > 100 µM
TGI (RPMI-8226 leukemia): > 100 µM
TGI (HCC-2998 colon): > 100 µM
TGI (RXF 393 renal): > 100 µM
TGI (MDA-N): > 100 µM
TGI (SK-OV-3 ovarian): > 100 µM
TGI (CCRF-CEM leukemia): > 100 µM
TGI (OVCAR-4 ovarian): > 100 µM
TGI (M14 melanoma): > 100 µM
TGI (IGROV1 ovarian): > 100 µM
TGI (A498 renal): > 100 µM
TGI (SK-MEL-2 melanoma): > 100 µM
TGI (SN12C renal): > 100 µM
TGI (786-0 renal): > 100 µM
TGI (UACC-257 melanoma): > 100 µM
TGI (SF-268 CNS): > 100 µM
TGI (SK-MEL-28 melanoma): > 100 µM
TGI (NCI-H226 lung): > 100 µM
TGI (TK-10 renal): > 100 µM
TGI (LOX IMVI melanoma): > 100 µM
TGI (HCT-15 colon): > 100 µM
TGI (NCI-H522 lung): > 100 µM
TGI (NCI-H23 lung): > 100 µM
TGI (SR leukemia): > 100 µM
TGI (NCI-H460 lung): > 100 µM
TGI (SW-620 colon): > 100 µM
TGI (EKVX NSCLC): > 100 µM
TGI (CAKI-1 renal): > 100 µM
TGI (OVCAR-5 ovarian): > 100 µM
TGI (MDA-MB-435): > 100 µM
TGI (NCI/ADR-RES ovarian): > 100 µM
TGI (ACHN renal): > 100 µM
